The values below come from PMC8348142, “Antimicrobial Peptide Modifications against Clinically Isolated Antibiotic-Resistant Salmonella” (Molecules, 2021).

Marks after values point to notes of the source that are not given here. Ends that are not written are not given here.

In general, MBC refers to the smallest concentration meeting the test's criterion for killing. Lower therefore signals greater bactericidal potency. A word on the MIC: it is the lowest concentration that inhibits growth of the organism. Read a low MIC as a more susceptible organism.

Holding throughout (type): cell-based
For data set [1], the system named is clinical Salmonella isolates. The experiment in a line: MBC, drop plate method, and MBC/MIC mode of action. To be noted: for MBC: drop plate on MHA from MIC plate, 37 °C, 18 h, thrice. How it is done: (§1) All 12 isolates of Salmonella used in this study were clinical isolates and anonymous left-overs from laboratory diagnoses. They were maintained in a 20% glycerol (Sigma-Aldrich) stock at −80 °C and further cultured on Mueller-Hinton agar (MHA, Oxoid, Hampshire, UK) at 37 °C for 18 h to obtain single colonies for antimicrobial assays. This study was approved by the Ethics Committee of the Faculty of Tropical Medicine (Mahidol University, Bangkok, Thailand; MUTM-EXMPT 2017-007).
The plate derived from the MIC assay was immediately tested for the MBC using a drop plate method. A volume of 10 µL of the culture from individual wells at MIC, 2MIC, and 4MIC was dropped on MHA plates. […] The experiment was thrice performed.
In order to determine whether the peptides have bacteriostatic or bactericidal activity, a ratio of MBC to MIC (MBC/MIC) was applied. The ratio >4 was indicative of bacteriostatic peptide, and ≤4 was inferred as bactericidal peptide.

In data set [2] the test system is sheep red blood cells. Put plainly: Hemolytic activity assay. To be noted: for percent hemolysis: 2% sRBCs in PBS, 37 °C, 1 h, OD540, triplicate mean. How it is done: The peptide toxicity to the mammalian system was screened based on the hemolytic test by measuring the hemoglobin released from ruptured red blood cells (RBCs). In this study, sheep RBCs (sRBCs) were employed. They were thrice washed and prepared as a suspension in phosphate-buffered saline (PBS, Oxoid). A suspension of 2% sRBCs was incubated with 2-fold serial dilutions of peptide (final concentrations; 256 to 1 µM in a total volume of 200 µL) at 37 °C for 1 h. The solutions of 0.1% (final concentration) Triton X-100 (Sigma-Aldrich) and PBS containing the peptide solvent were used instead of the peptides as the controls of hemolysis at 100% and 0%, respectively. Thereafter, the post-incubated suspensions were centrifuged (1000× g, 3 min) to pelletize residual sRBCs. The supernatants were then transferred into a flat-bottom PS 96-well plate and were measured the absorbance at 540 nm (OD540) by a microplate reader. The test was conducted in triplicate and the mean OD540 was used to calculate the hemolysis (%) as; ((OD540 (peptide) − OD540 (PBS + peptide solvent))/(OD540 (0.1% Triton X-100) − OD540 (PBS + peptide solvent))) × 100. The hemolytic concentration 50 (HC50), a concentration inducing 50% hemolysis, was determined.
The GraphPad Prism version 7.00 (GraphPad Software, La Jolla, CA, USA) was applied for all statistical analyses and data visualizations. Replicate quantitative results were calculated and shown as mean ± SD, unless otherwise specified. The HC50 values were determined using nonlinear regression analysis. The paired t-test and repeated measures one-way ANOVA with Tukey’s multiple comparison test were applied to compare between 2 groups and among 3 or more groups, respectively. The comparisons were considered as a statistically significant difference when a p-value < 0.05.

Data set [3] deals with clinical Salmonella isolates. Put plainly: MIC, broth microdilution. To be noted: for MIC: MHB, 5 × 10^5 CFU/mL, 37 °C, 18 h, duplicate. The protocol:
as §1
MIC was determined using the broth microdilution method described by Hancock with some modifications. Briefly, bacterial colonies grown from the MHA were prepared in MHB (Oxoid) as a 0.5 McFarland suspension (which is equal to 1 × 10^8 CFU/mL), and was further 200-fold diluted by the MHB (5 × 10^5 CFU/mL). The bacterial suspension (50 µL) was mixed with 2-fold serial dilutions of peptide (5.5 µL) achieving final concentrations of 256 to 1 µM using a round-bottom polypropylene (PP) 96-well plate (Greiner Bio-One). The plate was incubated at 37 °C for 18 h including incubating peptide free-bacteria as positive growth control, and MHB as negative growth control. After the incubation, the lowest concentration with no visible growth was defined as a MIC value. The assay was performed in a duplicate manner.
Background: Broth dilution looks for growth in wells or tubes with falling amounts of substance.

Setting [4] is: isolate 5 (Enteritidis, blood; resistant AMP, SXT, KZ).
Where [5] appears, read: isolate 7 (Typhimurium, blood; resistant AMP, CN, TE, NA, SXT).
[6] abbreviates: isolate 55 (Typhimurium, blood; resistant AMP, SXT, C, TE).
Setting [7] is: isolate 61 (Enteritidis, blood; resistant AMP, TE, NA, SXT).
Where [8] appears, read: isolate 69 (Typhimurium, stool; resistant AMP).
Setting [9] is: isolate 76 (Enteritidis, CSF; resistant NA).
Where [10] appears, read: isolate 78 (Enteritidis, blood; resistant TE, CIP, NA, SXT).
The mark [11] stands for this setting: isolate 107 (Typhimurium, stool; susceptible).

With FIRRIARLLRRIF [Kn2-5R], in data set [1] (geometric mean over 12 clinical Salmonella isolates), the GM of MBC worked out at 8 µM. Besides, the MBC in data set [1] (isolate 5 (Enteritidis)), in data set [1] (isolate 7 (Typhimurium)), in data set [1] (isolate 11 (I 1,4:i:-)), in data set [1] (isolate 18 (Stanley)), in data set [1] (isolate 26 (Typhimurium)) and in data set [1] (isolate 27 (Typhimurium)) was 8 µM each time. Besides, the MBC in data set [1] (isolate 55 (Typhimurium)), in data set [1] (isolate 61 (Enteritidis)), in data set [1] (isolate 69 (Typhimurium)), in data set [1] (isolate 76 (Enteritidis)), in data set [1] (isolate 78 (Enteritidis)) and in data set [1] (isolate 107 (Typhimurium)) was 8 µM each time. In addition, the “HC50 (hemolytic concentration 50)” value in data set [2] (concentration inducing 50% hemolysis of sRBCs, nonlinear regression, unit (µM)) was 886.50 µM. The percent hemolysis in data set [2] (peptide 1 µM) is 0%; in data set [2] (peptide 2 µM), 0%; in data set [2] (peptide 4 µM) it was 0.4%; in data set [2] (peptide 8 µM) it was 0.7 * %; in data set [2] (peptide 16 µM) it was 1.4%; in data set [2] (peptide 32 µM), 1.5%. Also, the percent hemolysis in data set [2] (peptide 64 µM) was found to be 1.8%; in data set [2] (peptide 128 µM), 2.4%; in data set [2] (peptide 256 µM), 10.6%. Further, the “concentration required for the initiation of hemolysis” value in data set [2] (sRBCs, 60 min, 256–1 µM tested) is listed as 4 µM. Moreover, the MIC in data set [3] (setting [4]) was 8 µM; in data set [3] (setting [5]), 8 µM; in data set [3] (isolate 11 (I 1,4:i:-, blood; resistant AMP, TE, NA, SXT, C)), 8 µM; in data set [3] (isolate 18 (Stanley, urine; resistant TE, SXT, C)) it was 8 µM; in data set [3] (isolate 26 (Typhimurium, urine; resistant TZP, TE, NA)), 8 µM; in data set [3] (isolate 27 (Typhimurium, stool; resistant AMP, TE, NA, SXT, CIP)) it was 8 µM. For the same substance, the minimal inhibitory concentration (MIC) in data set [3] (setting [6]), in data set [3] (setting [7]), in data set [3] (setting [8]), in data set [3] (setting [9]), in data set [3] (setting [10]) and in data set [3] (setting [11]) was 8 µM throughout.
Take “FIGAIARLLSKIF [BmKn-2, reference compound]”: the “MIC values, range over isolates” value in data set [3] (eight clinical Salmonella isolates, peptide 256–1 µM tested) was 64 to 256 µM. The MIC worked out at 128 µM in data set [3] (setting [4]); 128 µM in data set [3] (setting [5]); 256 µM in data set [3] (setting [6]); 256 µM in data set [3] (setting [7]); 256 µM in data set [3] (setting [8]); 64 µM in data set [3] (setting [9]). Further, the MIC in data set [3] (setting [10]) was 128 µM; in data set [3] (setting [11]), 64 µM.
In the case of KLKLLLLLKL [KLK1, reference compound], the MIC in data set [3] (setting [4]), in data set [3] (setting [5]), in data set [3] (setting [6]), in data set [3] (setting [7]), in data set [3] (setting [8]) and in data set [3] (setting [9]) was above 256 µM in each case. Moreover, the MIC in data set [3] (setting [10]) and in data set [3] (setting [11]) was above 256 µM each time.
As for FPSFLVGR [Pug-4, reference compound], the MIC in data set [3] (setting [4]), in data set [3] (setting [5]), in data set [3] (setting [6]), in data set [3] (setting [7]), in data set [3] (setting [8]) and in data set [3] (setting [9]) was above 256 µM throughout. Besides, the MIC in data set [3] (setting [10]) and in data set [3] (setting [11]) was above 256 µM in each case.
In the case of “KLKLLLLLKLK-NH2 [KLK, reference compound]”, the minimal inhibitory concentration (MIC) in data set [3] (setting [4]), in data set [3] (setting [5]), in data set [3] (setting [6]), in data set [3] (setting [7]), in data set [3] (setting [8]) and in data set [3] (setting [9]) was above 256 µM in each case. For the same substance, the MIC in data set [3] (setting [10]) and in data set [3] (setting [11]) was above 256 µM throughout.
Regarding “LLKLFFPFLETGE [Pug-1, reference compound]”, the MIC in data set [3] (setting [4]), in data set [3] (setting [5]), in data set [3] (setting [6]), in data set [3] (setting [7]), in data set [3] (setting [8]) and in data set [3] (setting [9]) was above 256 µM throughout. Further, the MIC in data set [3] (setting [10]) and in data set [3] (setting [11]) was above 256 µM each time.
On to “FIGAIARLLSK [BmKn-22, reference compound]”, for which the MIC in data set [3] (setting [4]), in data set [3] (setting [5]), in data set [3] (setting [6]), in data set [3] (setting [7]), in data set [3] (setting [8]) and in data set [3] (setting [9]) was above 256 µM each time. The minimal inhibitory concentration (MIC) in data set [3] (setting [10]) and in data set [3] (setting [11]) was above 256 µM each time.
